**Q.** For `CCCOCc1cccc(C2(c3ccc(OC(F)F)cc3)N=C(N)N(C)C2=O)c1` (centres unmarked) [Example 36, 2-amino-5-[4-(difluoromethoxy)phenyl]-3-methyl-5-[3-(propoxymethyl)phenyl]-3,5-dihydro-4H-imidazol-4-one], which melting point is on record?
**A.** 40 to 43 °C

**Q.** For `COCCCc1cccc(C2(c3ccc(OC(F)F)cc3)N=C(N)N(C)C2=O)c1` (centres unmarked) [Example 24, 2-Amino-5-[4-(difluoromethoxy)phenyl]-5-[3-(3-methoxypropyl)phenyl]-3-methyl-3,5-dihydro-4H-imidazol-4-one], which melting point is on record?
**A.** 48 to 50 °C

**Q.** For `CN1C(=O)C(c2ccc(OC(F)F)cc2)(c2cccc(CCF)c2)N=C1N` (centres unmarked) [Example 55, 2-Amino-5-[4-(difluoromethoxy)phenyl]-5-[3-(2-fluoroethyl)phenyl]-3-methyl-3,5-dihydro-4H-imidazol-4-one], which melting point is on record?
**A.** 60 to 63 °C

**Q.** Which melting point does the source give for `CCCCOCc1cccc(C2(c3ccc(OC(F)F)cc3)N=C(N)N(C)C2=O)c1` (centres unmarked) [Example 33, 2-amino-5-[3-(butoxymethyl)phenyl]-5-[4-(difluoromethoxy)phenyl]-3-methyl-3,5-dihydro-4H-imidazol-4-one] here?
**A.** 37 to 39 °C

**Q.** With `CN1C(=O)C(c2ccc(OC(F)F)cc2)(c2cccc(OCCCC(F)(F)F)c2)N=C1N` (centres unmarked) [Example 62, 2-amino-5-[4-(difluoromethoxy)phenyl]-3-methyl-5-[3-(4,4,4-trifluorobutoxy)phenyl]-3,5-dihydro-4H-imidazol-4-one] as the compound, how does the melting point read?
**A.** 82 to 85 °C

**Q.** With `CCOC(=O)C=C1CC(c2cccc(C3(c4ccc(OC(F)F)cc4)N=C(N)N(C)C3=O)c2)C1` (centres unmarked) [Example 90, Ethyl [3-(3-{2-Amino-4-[4-(difluoromethoxy)phenyl]-1-methyl-5-oxo-4,5-dihydro-1H-imidazol-4-yl}phenyl)cyclobutylidene]acetate] as the compound, how does the melting point read?
**A.** 78 to 80 °C

**Q.** Which melting point does the source give for `CN1C(=O)C(c2ccc(OC(F)F)cc2)(c2cccc(COC(CF)CF)c2)N=C1N` (centres unmarked) [Example 37, 2-amino-5-[4-(difluoromethoxy)phenyl]-5-(3-{[2-fluoro-1-(fluoromethyl)ethoxy]methyl}phenyl)-3-methyl-3,5-dihydro-4H-imidazol-4-one] here?
**A.** 46 to 50 °C

**Q.** For `CN1C(=O)C(c2ccc(OC(F)F)cc2)(c2cccc(COCC3CC3)c2)N=C1N` (centres unmarked) [Example 34, 2-amino-5-{3-[(cyclopropylmethoxy)methyl]phenyl}-5-[4-(difluoromethoxy)phenyl]-3-methyl-3,5-dihydro-4H-imidazol-4-one], which melting point is on record?
**A.** 47 to 50 °C

**Q.** For `C=CCCc1cc(C2(c3ccc(OC(F)F)cc3)N=C(N)N(C)C2=O)ccc1F` (centres unmarked) [Example 84, 2-Amino-5-(3-but-3-en-1-yl-4fluorophenyl)-5-[4-(difluoromethoxy)phenyl]-3-methyl-3,5-dihydro-4H-imidazol-4-one], which melting point is on record?
**A.** 55 to 58 °C

**Q.** With `CN1C(=O)C(c2ccc(OC(F)F)cc2)(c2cccc(CCCCC#N)c2)N=C1N` (centres unmarked) [Example 14, 5-(3-{2-Amino-4-[4-(difluoromethoxy)phenyl]-1-methyl-5-oxo-4,5-dihydro-1H-imidazol-4-yl}phenyl)pentanenitrile] as the compound, how does the melting point read?
**A.** 65 °C

**Q.** With `CN1C(=O)C(c2ccc(OC(F)F)cc2)(c2cccc(COCCF)c2)N=C1N` (centres unmarked) [Example 30, 2-Amino-5-[4-(difluoromethoxy)phenyl]-5-{3-[(2-fluoroethoxy)methyl]phenyl}-3-methyl-3,5-dihydro-4H-imidazol-4-one] as the compound, how does the melting point read?
**A.** 40 to 43 °C

**Q.** For `CCOCc1cccc(C2(c3ccc(OC(F)F)cc3)N=C(N)N(C)C2=O)c1` (centres unmarked) [Example 35, 2-amino-5-[4-(difluoromethoxy)phenyl]-5-[3-(ethoxymethyl)phenyl]-3-methyl-3,5-dihydro-4H-imidazol-4-one], which melting point is on record?
**A.** 45 to 48 °C

**Q.** For `COCc1cccc(C2(c3ccc(OC(F)F)cc3)N=C(N)N(C)C2=O)c1` (centres unmarked) [Example 32, 2-amino-5-[4-(difluoromethoxy)phenyl]-5-[3-(methoxymethyl)phenyl]-3-methyl-3,5-dihydro-4H-imidazol-4-one], which melting point is on record?
**A.** 70 to 72 °C

**Q.** Which melting point does the source give for `CN1C(=O)C(c2ccc(OC(F)F)cc2)(c2cccc(COCCC(F)(F)F)c2)N=C1N` (centres unmarked) [Example 31, 2-amino-5-[4-(difluoromethoxy)phenyl]-3-methyl-5-{3-[(3,3,3-trifluoropropoxy)methyl]phenyl}-3,5-dihydro-4H-imidazol-4-one] here?
**A.** 46 to 48 °C

**Q.** With `CN1C(=O)C(c2ccc(OC(F)F)cc2)(c2cccc(C3CC(=O)C3(C)C)c2)N=C1N` (centres unmarked) [Example 87, 2-Amino-5-[4-(difluoromethoxy)phenyl]-5-[3-(2,2-dimethyl-3-oxocyclobutyl)phenyl]-3-methyl-3,5-dihydro-4H-imidazol-4-one] as the compound, how does the melting point read?
**A.** 172 to 174 °C

**Q.** For `CN1C(=O)C(c2ccc(OC(F)F)cc2)(c2cccc(CCCCO)c2)N=C1N` (centres unmarked) [Example 21, 2-Amino-5-[4-(difluoromethoxy)phenyl]-5-[3-(4-hydroxybutyl)phenyl]-3-methyl-3,5-dihydro-4H-imidazol-4-one], which melting point is on record?
**A.** 63 to 66 °C

**Q.** For `CN1C(=O)C(c2ccc(OC(F)F)cc2)(c2cccc(C3CC(=O)C3)c2)N=C1N` (centres unmarked) [Example 88, 2-Amino-5-[4-(difluoromethoxy)phenyl]-3-methyl-5-[3-(3-oxocyclobutyl)phenyl]-3,5-dihydro-4H-imidazol-4-one], which melting point is on record?
**A.** 68 to 70 °C

**Q.** For `CN1C(=O)C(c2ccc(OC(F)F)cc2)(c2cccc(COCC(F)(F)C(F)F)c2)N=C1N` (centres unmarked) [Example 39, 2-amino-5-[4-(difluoromethoxy)phenyl]-3-methyl-5-{3-[(2,2,3,3-tetrafluoropropoxy)methyl]phenyl}-3,5-dihydro-4H-imidazol-4-one], which melting point is on record?
**A.** 48 to 50 °C

**Q.** With `CN1C(=O)C(c2ccc(OC(F)F)cc2)(c2cccc(OCCCF)c2)N=C1N` (centres unmarked) [Example 59, 2-Amino-5-[4-(difluoromethoxy)phenyl]-5-[3-(3-fluoropropox-1-yl)phenyl]-3-methyl-3,5-dihydro-4H-imidazol-4-one] as the compound, how does the melting point read?
**A.** 161 to 162 °C

**Q.** For `CN1C(=O)C(c2ccc(OC(F)F)cc2)(c2cccc(OCCCCF)c2)N=C1N` (centres unmarked) [Example 64, 2-amino-5-[4-(difluoromethoxy)phenyl]-5-[3-(4-fluorobutoxy)phenyl]-3-methyl-3,5-dihydro-4H-imidazol-4-one], which melting point is on record?
**A.** 139 to 140 °C

**Q.** With `COC(=O)CC1CC(c2cccc(C3(c4ccc(OC(F)F)cc4)N=C(N)N(C)C3=O)c2)C1` (centres unmarked) [Example 92, methyl [3-(3-{2-amino-4-[4-(difluoromethoxy)phenyl]-1-methyl-5-oxo-4,5-dihydro-1H-imidazol-4-yl}phenyl)cyclobutyl]acetate] as the compound, how does the melting point read?
**A.** 68 to 70 °C

**Q.** Which melting point does the source give for `CN1C(=O)C(c2ccc(OC(F)F)cc2)(c2cccc(C3CC(O)C3)c2)N=C1N` (centres unmarked) [Example 89, 2-Amino-5-[4-(difluoromethoxy)phenyl]-5-[3-(3-hydroxycyclobutyl)phenyl]-3-methyl-3,5-dihydro-4H-imidazol-4-one] here?
**A.** 186 to 190 °C

**Q.** For `C=C(F)CCc1cccc(C2(c3ccc(OC(F)F)cc3)N=C(N)N(C)C2=O)c1` (centres unmarked) [Example 17, 2-Amino-5-[4-(difluoromethoxy)phenyl]-5-[3-(3-fluorobut-3-en-1-yl)phenyl]-3-methyl-3,5-dihydro-4H-imidazol-4-one], which melting point is on record?
**A.** 58 to 60 °C

**Q.** With `CN1C(=O)C(c2ccc(OC(F)F)cc2)(c2cccc(CCCC(F)F)c2)N=C1N` (centres unmarked) [Example 19, 2-Amino-5-[3-(4,4-difluorobutyl)phenyl]-5-[4-(difluoromethoxy)phenyl]-3-methyl-3,5-dihydro-4H-imidazol-4-one] as the compound, how does the melting point read?
**A.** 54 to 57 °C

**Q.** Which melting point does the source give for `COCCCCc1cccc(C2(c3ccc(OC(F)F)cc3)N=C(N)N(C)C2=O)c1` (centres unmarked) [Example 28, 2-amino-5-[4-(difluoromethoxy)phenyl]-5-[3-(4-methoxybutyl)phenyl]-3-methyl-3,5-dihydro-4H-imidazol-4-one] here?
**A.** 36 to 39 °C

**Q.** Which melting point does the source give for `CCCNC(=O)c1cccc(C2(c3ccc(OC(F)F)cc3)N=C(N)N(C)C2=O)c1` (centres unmarked) [Example 29, 3-{2-Amino-4-[4-(difluoromethoxy)phenyl]-1-methyl-5-oxo-4,5-dihydro-1H-imidazol-4-yl}-N-propylbenzamide] here?
**A.** 93 to 96 °C

From patent US7423158B2, “Amino-5-[4-(difluoromethoxy)phenyl]-5-phenylimidazolone compounds for the inhibition of β-secretase” (Wyeth, priority 2005, dated 2008)
